Data published in PMC2670776 (Hepatology (Baltimore, Md.), 2009).
Where a SMILES comes first, the peptide text is derived from it. The star is where a group is joined. Cbz = O=C(OCc1ccccc1)*

Key:
SIINFEKL-H2Kb complex [1] = assay: Presentation of […]-H2Kb complex on HepB5 cells; format: cell-based, mouse; conditions: for SIINFEKL-H2Kb presentation compared with controls: IFNγ-pretreated HepB5 cells, 1 hr
proteasome [2] = assay: Proteasome chymotrypsin-like; format: cell-based, mouse; conditions: HepB5 cells, 48 hr
proteasome [3] = assay: Hydrolysis of […]-TE by cytosolic fractions of HepB5 cells; format: biochemical, mouse
SIINFEKL-H2Kb complex [4] = assay: Presentation of SIINFEKL-H2Kb complex on primary hepatocytes
proteasome [5] = assay: Proteasome activity in primary hepatocytes
HepB5 cells = assay: Acetaldehyde level in medium by head space gas chromatography; format: cell-based, mouse; conditions: HepB5 cells incubated with ethanol and DAS, 20 μM; culture medium
STAT1 [6] = conditions: HepB5 cells, ethanol treatment then IFNγ; data not shown
LMP2 = conditions: HepB5 cells, IFNγ 10 ng/ml and ethanol 50 mM, 48 hr; normalized to β-actin
ADH = ADH (Mus musculus, UniProt P00329); conditions: HepB5 cells exposed to ethanol for 48 hr; total cell lysates
ADH, sequence (P00329 whole entry): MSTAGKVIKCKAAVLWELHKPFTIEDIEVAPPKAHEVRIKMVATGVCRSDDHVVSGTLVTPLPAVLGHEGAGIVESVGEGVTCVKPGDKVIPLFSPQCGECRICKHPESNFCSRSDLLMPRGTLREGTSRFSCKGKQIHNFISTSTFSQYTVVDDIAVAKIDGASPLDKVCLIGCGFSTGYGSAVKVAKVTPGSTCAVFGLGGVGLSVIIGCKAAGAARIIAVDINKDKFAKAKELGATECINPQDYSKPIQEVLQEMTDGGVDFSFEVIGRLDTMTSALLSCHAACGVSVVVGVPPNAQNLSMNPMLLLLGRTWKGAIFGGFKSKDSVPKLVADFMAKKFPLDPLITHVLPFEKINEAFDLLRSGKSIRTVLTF

PA28 = conditions: HepB5 cells, IFNγ 10 ng/ml and ethanol 50 mM, 48 hr; normalized to β-actin
STAT1 [7] = conditions: HepB5 cells, ethanol 48 hr then IFNγ 1 hr; nuclear extracts; 3 experiments
H2Kb = H2Kb expression on HepB5 cells; format: cell-based, mouse; conditions: HepB5 cells after 24-hr IFNγ exposure; flow cytometric analysis
[8] = 50 mM ethanol 18 hr, without IFNγ

Cc1cn[nH]c1 [4MP, 4-methylpyrazole, reference compound]
Suppressive effects of ethanol on SIINFEKL-H2Kb presentation (SIINFEKL-H2Kb complex [1]; IFNγ-treated HepB5 cells, 50 mM ethanol with 4 MP in culture medium): blocked
Cht-L proteasome activity, cells incubated with ethanol and 4MP (proteasome [2]; 50 mM ethanol + 4MP 2 mM): unaffected
Inhibitory effect of ethanol on peptide cleavage after ethanol and 4MP (proteasome [3]; cytosols of HepB5 cells incubated with 50 mM ethanol and 4MP 2 mM): partially reversed
Ethanol-elicited reduction in SIINFEKL-H2Kb presentation (SIINFEKL-H2Kb complex [4]; 50 mM ethanol + 4MP 2 mM): partially prevented
Ethanol-elicited reduction in proteasome activity (proteasome [5]; 50 mM ethanol + 4MP 2 mM): partially prevented

C=CCSCC=C [DAS, diallyl sulfide]
Ach (acetaldehyde) levels (HepB5 cells): suppressed

CC(C)C[C@@H](C=O)NC(=O)[C@H](CC(C)C)NC(=O)[C@H](CC(C)C)NC(=O)OCc1ccccc1 [MG132] (Cbz-Leu-Leu-Leu-aldehyde)
SIINFEKL-H2Kb presentation compared with controls (SIINFEKL-H2Kb complex [1]; MG132 20 μM): suppressed
SIINFEKL-TE hydrolysis (proteasome [3]; cytosols of HepB5 cells with MG132): completely blocked

C[C@H]1CCC/C=C/[C@@H]2C[C@H](O)C[C@H]2[C@H](O)/C=C/C(=O)O1 [brefeldin A]
SIINFEKL-H2Kb presentation compared with controls (SIINFEKL-H2Kb complex [1]; brefeldin A 5 μg/ml): suppressed

CCO [ethanol]
STAT1 phosphorylation (STAT1 [6]): no changes
Induction of immunoproteasome subunit LMP2 by IFNγ (LMP2): prevented the induction
ADH activity (ADH): unchanged
Effect on IFNγ induction of proteasome activity (proteasome [2]; 50 mM ethanol + IFNγ 10 ng/ml): blocked this induction
Cht-L proteasome activity reduced by (proteasome [2]; ethanol 50 mM, 3 experiments): 40%
Peptide hydrolysis in IFNγ-treated cells (proteasome [3]; cytosols of IFNγ-treated HepB5 cells exposed to 50 mM ethanol): suppressed
Induction of 20S proteasome activator PA28 expression by IFNγ (PA28): prevented the induction
STAT1 attachment to DNA (STAT1 [7]): suppressed
Presentation of SIINFEKL-H2Kb complexes (SIINFEKL-H2Kb complex [4]; [8]): decreased
Antigen presentation in IFNγ-pretreated hepatocytes (SIINFEKL-H2Kb complex [4]; IFNγ 10 ng/ml, 50 mM ethanol): down-regulated
Proteasome activity (proteasome [5]; [8]): decreased
Proteasome function in IFNγ-pretreated hepatocytes (proteasome [5]; IFNγ 10 ng/ml, 50 mM ethanol): down-regulated

COC1=C2C[C@@H](C)C[C@H](OC)[C@H](O)[C@@H](C)/C=C(\C)[C@H](OC(N)=O)[C@@H](OC)/C=C\C=C(/C)C(=O)NC(=CC1=O)C2=O [geldanamycin]
SIINFEKL-H2Kb presentation compared with controls (SIINFEKL-H2Kb complex [1]; geldanamycin 5 μM): suppressed

IFNγ: recombinant interferon gamma, used at 10 ng/ml
Effect on proteasome activity (proteasome [2]; IFNγ 10 ng/ml): induced proteasome activity
H2Kb positive cells (H2Kb): about 90%

catalase
SIINFEKL-H2Kb presentation restored (SIINFEKL-H2Kb complex [1]; IFNγ-treated HepB5 cells, co-treatment with ethanol and catalase): up to 80%
